Experiments:
[1] = Liver microsomal stability, mouse; format: in vitro ADME, CD1 mouse; settings: protein 0.5 mg/mL
Protocol: Pooled liver microsomes from CD1 mouse, IGS Sprague-Dawley rat, Beagle dog, and mixed gender human were used for assays. Incubations (1 mL) consisted of liver microsomes (0.5 mg/mL), NADPH (1 mM) and 100 mM sodium phosphate buffer (pH 7.4). Following pre-incubation (10 min, 37 °C), reactions were initiated by spiking ACN/DMSO (80:20) stock solutions of GE phenolics (5 μL, 10 μM). Samples (100 μL) were withdrawn at 0, 5, 10, 15, 20 and 30 min and quenched with 200 μL acetonitrile containing internal standard. Concomitant NADPH-free control incubations were prepared similarly.

[2] = Mouse pharmacokinetic study of oral GE with and without ketoconazole, plasma with and without β-glucuronidase treatment; format: in vivo, male mice (C57BL6J); settings: for Concentration Ratio (Total/Free) of GE Phenolics: GE administered group; for Concentration Ratio (Total/Free) of GE Phenolics / concentration at 0 h / concentration at 0.087 h / concentration at 0.167 h / concentration at 0.25 h / concentration at 0.5 h / concentration at 1 h / concentration at 2 h / concentration at 3 h / concentration at 4 h / concentration at 6 h / concentration at 8 h / concentration at 12 h: mouse plasma; for AUC(0-t) / Cmax / Tmax / concentration at 0 h / concentration at 0.087 h / concentration at 0.167 h / concentration at 0.25 h / concentration at 0.5 h / concentration at 1 h / concentration at 2 h / concentration at 3 h / concentration at 4 h / concentration at 6 h / concentration at 8 h / concentration at 12 h: male, C57BL6J; for AUC(0-t) / Cmax / Tmax: mouse, plasma, po, 250 mg/kg
Protocol: A solution formulation of GE was prepared by using 5% ethanol, 5% Tween 80, 40% polyethylene glycol, and 50% corn oil. The dose volume was 10 mL/kg and the dose administered was 250 mg/kg GE.
Pharmacokinetic study in male mice (C57BL6J, Harlan Laboratories, Indianapolis, IN, USA) was run with 36 animals in each group at a GE dose of 250 mg/kg with a dose volume of 10 mL/kg. One group was given GE alone and in the second group GE was co-administered with KTZ (50 mg/kg). A terminal sampling design was used to collect blood samples at 0 (pre-dose), 0.08, 0.16, 0.25, 0.5, 1, 2, 3, 4, 6, 8, and 12 h. At each time, 1 mL of blood was collected in ethylenediaminetetraacetic acid di-potassium salt (K2EDTA) tubes (BD Biosciences, Franklin Lakes, NJ, USA). Plasma was separated by centrifugation of samples at 4000 rpm for 10 min and stored below −60 °C till bioanalysis. All experiments were performed with approval from the Institutional Animal Care and Use Committee (IACUC, approval code: A14031). All animals were acclimatized for five days before dosing in the experimental area. Food and water was provided ad libitum throughout the study period. Animals were marked and housed (three per cage, n = 36 per group) in polypropylene cages and maintained in controlled environmental conditions with 12 h light and dark cycles. The temperature and humidity of the room was maintained between 22 ± 3 °C and 30% to 50%, respectively, and approximately 10–12 fresh air change cycles per hour.
To confirm the presence of GE glucuronide conjugates, plasma (100 μL) was treated with βgd (20 μL, 500 units) and incubated at 37 °C for 1 h. Each sample was analyzed twice with and without β-gd treatment. Samples without gde treatment were diluted with 20 μL of buffer. Total (conjugated + free) and free ginger phenolics data were reported following bioanalysis.
All in vitro and in vivo samples were processed by protein precipitation method. An aliquot (100 μL) of the sample was spiked with 200 μL of acetonitrile containing dihydrocapsaicin as internal standard (IS) and vortex mixed for 3 min. The tubes were centrifuged at 12,000 rpm for 10 min and an aliquot of supernatant was transferred into autosampler vials for analysis. The stock solutions of 6G, 8G, 10G, and 6S were prepared in ACN/water (70:30) at 1 mg/mL. A calibration curve (CC) range of 2–2000 ng/mL was employed for the quantification of analytes and IS concentration was 150 ng/mL for each analysis. The CC consisted of blank, blank with IS and seven non-zero calibration standards. The calibration standards were within ±15% of the nominal concentration and lower limit of quantification was within ±20% of nominal. All samples were analyzed using liquid chromatography tandem mass spectrometry (LC-MS/MS) method (Agilent 6410 series, Santa Clara, CA, USA). A positive ionization mode with multiple reaction monitoring (MRM, m/z Q1/Q3) of 6G (m/z 277.1/177.1, retention time (RT) 2.0 min), 8G (m/z 305.1/177.1, RT 4.0 min), 10G (m/z 333.1/177.1, RT 7.7 min), 6S (m/z 277.1/137.1, RT 5.1 min), and IS (m/z 308.2/137.1, RT 3.4 min) was employed. The ion spray voltage was set at 3500 V, ionization temperature was set to 300 °C and drying gas flow rate was 10 L/min. Data acquisition and quantitation were performed using Mass Hunter software (Agilent Technologies, Wilmington, DE, USA). Separation was achieved using HP1100 series LC (Agilent Technologies) with an Agilent Zorbax reversed-phase (SB-C18, 2.1 × 50 mm, 5.0 μm) column. A gradient method was employed to separate the individual GE phenolics using mobile phase A (0.1% formic acid in water) and mobile phase B (Acetonitrile). The gradient elution method with 50% B at 0 min, 90% B at 5 min, held for 2.1 min, back to 50% B at 7.1 min with a flow rate of 0.2 mL/min. An injection volume of 2 μL was used for analysis. […]

[3] = 250 mg/kg GE + 50 mg/kg KTZ oral, +KTZ −βgd

remaining at 0.5 h, 10 µM ([1]; CD1, pooled liver microsomes, pH 7.4, substrate 10 µM, n = 2, read-out: % Remaining at 30 min): 30%
Intrinsic Clearance ([1]; mouse liver microsomes, substrate 10 µM, 45 mg protein/g liver): 10.5 mL/min/g Liver
AUClast Ratio ([2]; +KTZ +βgd, reference GE group co-administered with KTZ untreated with βgd): 63
AUClast Ratio ([2]; +KTZ +βgd, reference GE group untreated with βgd): 498
AUClast Ratio ([2]; +KTZ −βgd, reference GE group untreated with βgd): 8
Concentration Ratio (Total/Free) of GE Phenolics ([2]; 0 h): 0
Concentration Ratio (Total/Free) of GE Phenolics ([2]; 0.087 h): 0
Concentration Ratio (Total/Free) of GE Phenolics ([2]; 0.167 h): 0
Concentration Ratio (Total/Free) of GE Phenolics ([2]; 0.25 h): 3659
Concentration Ratio (Total/Free) of GE Phenolics ([2]; 0.5 h): 8723
Concentration Ratio (Total/Free) of GE Phenolics ([2]; 1 h): 0
Concentration Ratio (Total/Free) of GE Phenolics ([2]; 2 h): 53
Concentration Ratio (Total/Free) of GE Phenolics ([2]; 3 h): 290
Concentration Ratio (Total/Free) of GE Phenolics ([2]; 4 h): 491
Concentration Ratio (Total/Free) of GE Phenolics ([2]; 6 h): 391
Concentration Ratio (Total/Free) of GE Phenolics ([2]; 8 h): 0
Concentration Ratio (Total/Free) of GE Phenolics ([2]; 12 h): 0
AUC(0-t) ([2]; 250 mg/kg GE oral, −βgd): 37.7 ng·h/mL
Cmax ([2]; 250 mg/kg GE oral, −βgd): 27.2 ng/mL
Tmax ([2]; 250 mg/kg GE oral, −βgd): 2 h
AUC(0-t) [2, 3]: 300 ng·h/mL
Cmax [2, 3]: 257 ng/mL
Tmax [2, 3]: 0.5 h
concentration at 0 h ([2]; 250 mg/kg GE oral, 0 h, −βgd): 0 ng/mL
concentration at 0.087 h ([2]; 250 mg/kg GE oral, 0.087 h, −βgd): 0 ng/mL
concentration at 0.167 h ([2]; 250 mg/kg GE oral, 0.167 h, −βgd): 0.11 ± 0.08 ng/mL
concentration at 0.25 h ([2]; 250 mg/kg GE oral, 0.25 h, −βgd): 2.25 ± 1.73 ng/mL
concentration at 0.5 h ([2]; 250 mg/kg GE oral, 0.5 h, −βgd): 1.79 ± 1.82 ng/mL
concentration at 1 h ([2]; 250 mg/kg GE oral, 1 h, −βgd): 1.04 ± 0.79 ng/mL
concentration at 2 h ([2]; 250 mg/kg GE oral, 2 h, −βgd): 27.2 ± 38.4 ng/mL
concentration at 3 h ([2]; 250 mg/kg GE oral, 3 h, −βgd): 2.45 ± 1.73 ng/mL
concentration at 4 h ([2]; 250 mg/kg GE oral, 4 h, −βgd): 0.82 ± 1.16 ng/mL
concentration at 6 h ([2]; 250 mg/kg GE oral, 6 h, −βgd): 3.22 ± 4.03 ng/mL
concentration at 8 h ([2]; 250 mg/kg GE oral, 8 h, −βgd): 0.77 ± 0.57 ng/mL
concentration at 12 h ([2]; 250 mg/kg GE oral, 12 h, −βgd): 0.33 ± 0.44 ng/mL
concentration at 0 h ([2]; 250 mg/kg GE with 50 mg/kg ketoconazole oral, 0 h, −βgd): 0 ng/mL
concentration at 0.087 h ([2]; 250 mg/kg GE with 50 mg/kg ketoconazole oral, 0.087 h, −βgd): 0.31 ± 0.44 ng/mL
concentration at 0.167 h ([2]; 250 mg/kg GE with 50 mg/kg ketoconazole oral, 0.167 h, −βgd): 5.71 ± 4.25 ng/mL
concentration at 0.25 h ([2]; 250 mg/kg GE with 50 mg/kg ketoconazole oral, 0.25 h, −βgd): 35.9 ± 44.5 ng/mL
concentration at 0.5 h ([2]; 250 mg/kg GE with 50 mg/kg ketoconazole oral, 0.5 h, −βgd): 37900 ng/mL
concentration at 1 h ([2]; 250 mg/kg GE with 50 mg/kg ketoconazole oral, 1 h, −βgd): 104 ± 110 ng/mL
concentration at 2 h ([2]; 250 mg/kg GE with 50 mg/kg ketoconazole oral, 2 h, −βgd): 70900 ng/mL
concentration at 3 h ([2]; 250 mg/kg GE with 50 mg/kg ketoconazole oral, 3 h, −βgd): 65.2 ± 54.3 ng/mL
concentration at 4 h ([2]; 250 mg/kg GE with 50 mg/kg ketoconazole oral, 4 h, −βgd): 5.87 ± 1.18 ng/mL
concentration at 6 h ([2]; 250 mg/kg GE with 50 mg/kg ketoconazole oral, 6 h, −βgd): 1.09 ± 0.93 ng/mL
concentration at 8 h ([2]; 250 mg/kg GE with 50 mg/kg ketoconazole oral, 8 h, −βgd): 10.4 ± 11.1 ng/mL
concentration at 12 h ([2]; 250 mg/kg GE with 50 mg/kg ketoconazole oral, 12 h, −βgd): 0.74 ± 1.05 ng/mL
SMILES: CCCCC[C@H](O)CC(=O)CCc1ccc(O)c(OC)c1 [6G, 6-gingerol]

Source: PMC6154694, “Absorption, Metabolic Stability, and Pharmacokinetics of Ginger Phytochemicals” (Molecules : A Journal of Synthetic Chemistry and Natural …, 2017)
